{"source": "the supplement of paper PMC11208160", "data": [{"assay": "recombinant barcode read abundance after kanamycin selection (control-corrected) (log10(CPM+1)); higher = more efficient recombination; sequences stand for … in AGTGCAGAGAAAATCGGCCAGTTTTCTCTGCCTGCAGTCCGCATGCCGT…AGATTTATGCAGCGGACTGCCTTTCTCCCAAAGTGATAAACCGGACAGTATCATGGACCGGTTTTCCCGGTAATCCGTATTTGCAAGGTTGGTTTCACT; site = the 11-nt target", "summary_of_the_method": "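Reported as log10(CPM+1), each value stands for recombination efficiency. That efficiency is the averaged, control-corrected counts per million of barcodes found at recombinant junctions. Cells from a pooled E. coli library pairing targets with IS621 bridge RNA target-binding loops were plated twice on chloramphenicol/ampicillin LB agar (control) and twice on chloramphenicol/ampicillin/kanamycin with 0.1 mM IPTG.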", "values": [{"sequence": "GGAGGACCTTGGGTTCTAACCTGTTGCTT (site GGAAGACCTTA)", "recombinant barcode read abundance (log10)": 0.19}, {"sequence": "GGAGGACCTTGGGTTCTAACCTGTTGCTT (site GGAGGACCTAA)", "recombinant barcode read abundance (log10)": 2.4}, {"sequence": "GGAGGGACTTGGGTTCTAACCTGTTGCCT (site GAAGGGACTAG)", "recombinant barcode read abundance (log10)": 1.38}, {"sequence": "GGAGGGACTTGGGTTCTAACCTGTTGCCT (site GCAGGGACTAG)", "recombinant barcode read abundance (log10)": 0.658}, {"sequence": "GGAGGGACTTGGGTTCTAACCTGTTGCCT (site GGAGGGACTAG)", "recombinant barcode read abundance (log10)": 2.69}, {"sequence": "GGAGGGACTTGGGTTCTAACCTGTTGCCT (site GTAGGGACTAG)", "recombinant barcode read abundance (log10)": 1.7}, {"sequence": "GGAGGTACTTGGGTTCTAACCTGTTGCCT (site GGAGGAACTAG)", "recombinant barcode read abundance (log10)": 0.0658}, {"sequence": "GGAGGTACTTGGGTTCTAACCTGTTGCCT (site GGAGGTACTAG)", "recombinant barcode read abundance (log10)": 1.17}, {"sequence": "GGAGGTCCTTGGGTTCTAACCTGTTGCTA (site GGAGGTCCTTA)", "recombinant barcode read abundance (log10)": 2.08}, {"sequence": "GGAGGTCCTTGGGTTCTAACCTGTTGCTA (site TAAGGTCCTTA)", "recombinant barcode read abundance (log10)": 0.0399}, {"sequence": "GGAGTACCTTGGGTTCTAACCTGTTGCAT (site CCTCATACTTG)", "recombinant barcode read abundance (log10)": 0.0895}, {"sequence": "GGAGTACCTTGGGTTCTAACCTGTTGCAT (site GGAGTACCTAT)", "recombinant barcode read abundance (log10)": 2.12}, {"sequence": "GGAGTTGCTTGGGTTCTAACCTGTTGCCT (site GGAGATTCTAG)", "recombinant barcode read abundance (log10)": 0.273}, {"sequence": "GGAGTTGCTTGGGTTCTAACCTGTTGCCT (site GGAGTTGCTAG)", "recombinant barcode read abundance (log10)": 2.27}, {"sequence": "GGATACACTTGGGTTCTAACCTGTTGCCT (site GGATACACTAG)", "recombinant barcode read abundance (log10)": 2.06}, {"sequence": "GGATACACTTGGGTTCTAACCTGTTGCCT (site GGTTACACTAG)", "recombinant barcode read abundance (log10)": 0.395}, {"sequence": "GGATCCACTTGGGTTCTAACCTGTTGCCA (site GGATACACTTG)", "recombinant barcode read abundance (log10)": 0.049}, {"sequence": "GGATCCACTTGGGTTCTAACCTGTTGCCA (site GGATCCACTTG)", "recombinant barcode read abundance (log10)": 0.117}, {"sequence": "GGATCCACTTGGGTTCTAACCTGTTGCCA (site GGATGCACTTG)", "recombinant barcode read abundance (log10)": 0.0631}, {"sequence": "GGATCCACTTGGGTTCTAACCTGTTGCCA (site GGATTCACTTG)", "recombinant barcode read abundance (log10)": 0.0388}, {"sequence": "GGATTCCCTTGGGTTCTAACCTGTTGCCA (site GGAGTCCCTTC)", "recombinant barcode read abundance (log10)": 0.242}, {"sequence": "GGATTCCCTTGGGTTCTAACCTGTTGCCA (site GGATTCCCTTG)", "recombinant barcode read abundance (log10)": 1.15}, {"sequence": "GGATTTACTTGGGTTCTAACCTGTTGCCT (site GGATATACTAG)", "recombinant barcode read abundance (log10)": 0.0849}, {"sequence": "GGATTTACTTGGGTTCTAACCTGTTGCCT (site GGATTTACTAG)", "recombinant barcode read abundance (log10)": 0.276}, {"sequence": "GGCAAGACTTGGGTTCTAACCTGTTGCCT (site GGAAAGACTAG)", "recombinant barcode read abundance (log10)": 0}, {"sequence": "GGCAAGACTTGGGTTCTAACCTGTTGCCT (site GGCAAGACTAG)", "recombinant barcode read abundance (log10)": 0.185}, {"sequence": "GGCAAGACTTGGGTTCTAACCTGTTGCCT (site GGGAAGACTAG)", "recombinant barcode read abundance (log10)": 0.154}, {"sequence": "GGCAAGACTTGGGTTCTAACCTGTTGCCT (site GGTAAGACTAG)", "recombinant barcode read abundance (log10)": 0.0715}, {"sequence": "GGCACGGCTTGGGTTCTAACCTGTTGCCT (site GGCACAGCTAG)", "recombinant barcode read abundance (log10)": 0.519}, {"sequence": "GGCACGGCTTGGGTTCTAACCTGTTGCCT (site GGCACCGCTAG)", "recombinant barcode read abundance (log10)": 0.0995}, {"sequence": "GGCACGGCTTGGGTTCTAACCTGTTGCCT (site GGCACGGCTAG)", "recombinant barcode read abundance (log10)": 0.134}, {"sequence": "GGCACGGCTTGGGTTCTAACCTGTTGCCT (site GGCACTGCTAG)", "recombinant barcode read abundance (log10)": 0.11}, {"sequence": "GGCAGGTCTTGGGTTCTAACCTGTTGCTT (site GGCAGATCTAA)", "recombinant barcode read abundance (log10)": 0.163}, {"sequence": "GGCAGGTCTTGGGTTCTAACCTGTTGCTT (site GGCAGCTCTAA)", "recombinant barcode read abundance (log10)": 0.0728}, {"sequence": "GGCAGGTCTTGGGTTCTAACCTGTTGCTT (site GGCAGGTCTAA)", "recombinant barcode read abundance (log10)": 0.795}, {"sequence": "GGCAGGTCTTGGGTTCTAACCTGTTGCTT (site GGCAGTTCTAA)", "recombinant barcode read abundance (log10)": 0.044}, {"sequence": "GGCAGTTCTTGGGTTCTAACCTGTTGCTT (site GGCAGATCTAA)", "recombinant barcode read abundance (log10)": 0.0437}, {"sequence": "GGCAGTTCTTGGGTTCTAACCTGTTGCTT (site GGCAGCTCTAA)", "recombinant barcode read abundance (log10)": 0.0661}, {"sequence": "GGCAGTTCTTGGGTTCTAACCTGTTGCTT (site GGCAGGTCTAA)", "recombinant barcode read abundance (log10)": 0.0765}, {"sequence": "GGCAGTTCTTGGGTTCTAACCTGTTGCTT (site GGCAGTTCTAA)", "recombinant barcode read abundance (log10)": 0.0537}, {"sequence": "GGCCCCTCTTGGGTTCTAACCTGTTGCCG (site CGCGCCTCTCG)", "recombinant barcode read abundance (log10)": 0.368}, {"sequence": "GGCCCCTCTTGGGTTCTAACCTGTTGCCG (site GGCCCCTCTCG)", "recombinant barcode read abundance (log10)": 1.8}, {"sequence": "GGCCGAACTTGGGTTCTAACCTGTTGCCT (site AGCCGAACTAG)", "recombinant barcode read abundance (log10)": 0.112}, {"sequence": "GGCCGAACTTGGGTTCTAACCTGTTGCCT (site CGCCGAACTAG)", "recombinant barcode read abundance (log10)": 0.0639}, {"sequence": "GGCCGAACTTGGGTTCTAACCTGTTGCCT (site GGCCGAACTAG)", "recombinant barcode read abundance (log10)": 0.211}, {"sequence": "GGCCGAACTTGGGTTCTAACCTGTTGCCT (site TGCCGAACTAG)", "recombinant barcode read abundance (log10)": 0.144}, {"sequence": "GGCCGGGCTTGGGTTCTAACCTGTTGCGG (site GCCCGGGCTCC)", "recombinant barcode read abundance (log10)": 0.286}, {"sequence": "GGCCGGGCTTGGGTTCTAACCTGTTGCGG (site GGCCGGGCTCC)", "recombinant barcode read abundance (log10)": 0.906}, {"sequence": "GGCCTCCCTTGGGTTCTAACCTGTTGCAT (site CGCCTCCCTAT)", "recombinant barcode read abundance (log10)": 0.0328}, {"sequence": "GGCCTCCCTTGGGTTCTAACCTGTTGCAT (site GGCCTCCCTAT)", "recombinant barcode read abundance (log10)": 0.743}, {"sequence": "GGCGACCCTTGGGTTCTAACCTGTTGCCT (site GGCGACCCTAG)", "recombinant barcode read abundance (log10)": 0.99}, {"sequence": "GGCGACCCTTGGGTTCTAACCTGTTGCCT (site GGCGTCACTAG)", "recombinant barcode read abundance (log10)": 0.143}, {"sequence": "GGCGAGTCTTGGGTTCTAACCTGTTGCTA (site GACGAGTCTTA)", "recombinant barcode read abundance (log10)": 1.4}, {"sequence": "GGCGAGTCTTGGGTTCTAACCTGTTGCTA (site GGCGAGTCTTA)", "recombinant barcode read abundance (log10)": 1.64}, {"sequence": "GGCGCATCTTGGGTTCTAACCTGTTGCCT (site GGCGCATCTAG)", "recombinant barcode read abundance (log10)": 0.417}, {"sequence": "GGCGCATCTTGGGTTCTAACCTGTTGCCT (site GGCGCGTCTAG)", "recombinant barcode read abundance (log10)": 0.207}, {"sequence": "GGCGGAGCTTGGGTTCTAACCTGTTGCCG (site CTGCACCCTTA)", "recombinant barcode read abundance (log10)": 0.0863}, {"sequence": "GGCGGAGCTTGGGTTCTAACCTGTTGCCG (site GGCGGAGCTCG)", "recombinant barcode read abundance (log10)": 1.27}, {"sequence": "GGCGGCTCTTGGGTTCTAACCTGTTGCCT (site ACATAAGCTTA)", "recombinant barcode read abundance (log10)": 0.103}, {"sequence": "GGCGGCTCTTGGGTTCTAACCTGTTGCCT (site GGCGGCTCTAG)", "recombinant barcode read abundance (log10)": 1.42}, {"sequence": "GGCTATGCTTGGGTTCTAACCTGTTGCCT (site GACTATGCTAG)", "recombinant barcode read abundance (log10)": 0.143}, {"sequence": "GGCTATGCTTGGGTTCTAACCTGTTGCCT (site GCCTATGCTAG)", "recombinant barcode read abundance (log10)": 0.106}, {"sequence": "GGCTATGCTTGGGTTCTAACCTGTTGCCT (site GGCTATGCTAG)", "recombinant barcode read abundance (log10)": 0.175}, {"sequence": "GGCTATGCTTGGGTTCTAACCTGTTGCCT (site GTCTATGCTAG)", "recombinant barcode read abundance (log10)": 0.0729}, {"sequence": "GGCTGAGCTTGGGTTCTAACCTGTTGCCT (site GACTGAGCTAC)", "recombinant barcode read abundance (log10)": 0.0838}, {"sequence": "GGCTGAGCTTGGGTTCTAACCTGTTGCCT (site GGCTGAGCTAG)", "recombinant barcode read abundance (log10)": 0.856}, {"sequence": "GGCTGATCTTGGGTTCTAACCTGTTGCCT (site AGCTGATCTAG)", "recombinant barcode read abundance (log10)": 0.126}, {"sequence": "GGCTGATCTTGGGTTCTAACCTGTTGCCT (site CGCTGATCTAG)", "recombinant barcode read abundance (log10)": 0.309}, {"sequence": "GGCTGATCTTGGGTTCTAACCTGTTGCCT (site GGCTGATCTAG)", "recombinant barcode read abundance (log10)": 0.382}, {"sequence": "GGCTGATCTTGGGTTCTAACCTGTTGCCT (site TGCTGATCTAG)", "recombinant barcode read abundance (log10)": 0.216}, {"sequence": "GGCTGCACTTGGGTTCTAACCTGTTGCCT (site GGCGGTACTAG)", "recombinant barcode read abundance (log10)": 0.504}, {"sequence": "GGCTGCACTTGGGTTCTAACCTGTTGCCT (site GGCTGCACTAG)", "recombinant barcode read abundance (log10)": 1.17}, {"sequence": "GGCTGGGCTTGGGTTCTAACCTGTTGCCG (site GGCTGGGCTCG)", "recombinant barcode read abundance (log10)": 0.125}, {"sequence": "GGCTGGGCTTGGGTTCTAACCTGTTGCCG (site GGTTGGGCTCT)", "recombinant barcode read abundance (log10)": 0.194}, {"sequence": "GGCTGTTCTTGGGTTCTAACCTGTTGCCT (site GACTGTTCTAG)", "recombinant barcode read abundance (log10)": 0.195}, {"sequence": "GGCTGTTCTTGGGTTCTAACCTGTTGCCT (site GCCTGTTCTAG)", "recombinant barcode read abundance (log10)": 0.425}, {"sequence": "GGCTGTTCTTGGGTTCTAACCTGTTGCCT (site GGCTGTTCTAG)", "recombinant barcode read abundance (log10)": 0.334}, {"sequence": "GGCTGTTCTTGGGTTCTAACCTGTTGCCT (site GTCTGTTCTAG)", "recombinant barcode read abundance (log10)": 0.242}, {"sequence": "GGCTTCCCTTGGGTTCTAACCTGTTGCCT (site GGCATCCCTAG)", "recombinant barcode read abundance (log10)": 0.299}, {"sequence": "GGCTTCCCTTGGGTTCTAACCTGTTGCCT (site GGCCTCCCTAG)", "recombinant barcode read abundance (log10)": 0.855}, {"sequence": "GGCTTCCCTTGGGTTCTAACCTGTTGCCT (site GGCGTCCCTAG)", "recombinant barcode read abundance (log10)": 0.141}, {"sequence": "GGCTTCCCTTGGGTTCTAACCTGTTGCCT (site GGCTTCCCTAG)", "recombinant barcode read abundance (log10)": 0.415}, {"sequence": "GGCTTGACTTGGGTTCTAACCTGTTGCCT (site CCAGGTGCTCC)", "recombinant barcode read abundance (log10)": 0.304}, {"sequence": "GGCTTGACTTGGGTTCTAACCTGTTGCCT (site GGCTTGACTAG)", "recombinant barcode read abundance (log10)": 0.694}, {"sequence": "GGGAACACTTGGGTTCTAACCTGTTGCCA (site GGGAACACTTG)", "recombinant barcode read abundance (log10)": 1.74}, {"sequence": "GGGAACACTTGGGTTCTAACCTGTTGCCA (site GGGCACACTTG)", "recombinant barcode read abundance (log10)": 0.11}]}]}
